Key:
Assay type in all cases: in vivo, human
PsO patient = test: Clinical metadata of pre- and post-secukinumab-treated patient
Source text: (§1) IL-17A blocking therapies are lauded for their clinical success, often achieving complete remission of skin plaques within 6 months of treatment (Ghoreschi et al., 2021). This remarkable clinical response provided a unique opportunity to examine if HIF1α levels normalize with successful therapy. Therefore, pre- and post-treatment biopsies were obtained from a secukinumab (anti-IL-17A) treated PsO patient who achieved complete clinical remission (Psoriatic Area and Severity Score (PASI) 100, or 100% psoriasis plaque clearance) (FIG. 3A and Table 1). Pre- and 12-weeks post-therapy biopsies from both lesional and non-lesional skin were taken <0.5 cm apart from the same patient, ensuring that post-treatment biopsies were taken from resolved lesions and not adjacent uninvolved skin (FIG. 8A).
Human skin samples. Following anesthetization with 2% lidocaine injection, 4 mm full-thickness punch biopsies were performed on lesional skin, and matched non-lesional skin located contralaterally. In healthy volunteers, skin biopsy samples were obtained from the trunk and/or extremities. Post-therapy biopsies from secukinumab-treated patients were taken 5 to 10 mm away from the original biopsy site within the original lesion area, discerned by hyperpigmentation, and at contralateral non-lesional skin.

[1] = system: HIF1A, IL17RA, and IL17RC; test: Spatial transcriptomics of pre- and post-secukinumab lesional and non-lesional skin; conditions: following therapy, 12 weeks; one patient
Source text: as §1, with “Pre- and 12-weeks post-therapy biopsies from both lesional and non-lesional skin were taken <0.5 cm apart from the same patient, ensuring that post-treatment biopsies were taken from resolved lesions and not adjacent uninvolved skin (FIG. 8A).” left out
When compared to contralateral non-lesional skin, the PsO lesion was enriched for HIF1A, IL17RA, and IL17RC (FIGS. 3B and 8H). […] As a complementary analysis, HIF1α protein expression was measured in a cohort of 10 patients treated with etanercept (anti-TNFα) that achieved response (PASI 75 or greater) at 12 weeks (Table 2) (Stinco et al., 2019). […]
Spatial transcriptomics. […] Spot selection and image alignment: Following probe cleavage, fluorescent images were taken on a Hamamatsu NanoZoomer whole slide fluorescence scanner. […] The Space Ranger mkfastq function was used for sample demultiplexing and converting spatial barcodes and reads into FASTQ format. […]

[2] = system: HIF1α-inhibitor downregulated gene signature; test: Transcriptional program response analyses to clinical trial data (GSVA, NCT01537432); conditions: baseline and 1, 4, 12 weeks of secukinumab or placebo
Source text: The dramatic transcriptional response following BAY 87-2243 treatment prompted investigation of the role of HIF1α-modulated genes on PsO disease pathogenesis. Toward this end, HIF1α-modulated genes were projected onto a longitudinal analysis of the transcriptional response from 33 patients following either placebo (9 patients) or anti-IL-17A blocking (secukinumab) therapy (24 patients) (NCT01537432) (Krueger et al., 2019).
Transcriptional program response analyses to clinical trial data. Scoring methods: To evaluate if gene signatures derived from differential gene expression in human biopsy cultures or topical HIF1α inhibitor treatment in IMQ-treated murine model would be affected by anti-IL17 treatment, the genes down regulated by HIF1α inhibitor (HIF1α-signature) were projected into the longitudinal gene expression profiles of 31 psoriasis patients enrolled in a randomized clinical trial testing the efficacy of Secukinumab 300 mgs (n=22) versus Placebo (n=9) (Krueger et al., 2019). The overall expression/activity of the signatures was estimated using gene set variation analysis (GSVA). GSVA, a non-parametric and non-supervised method, estimated a sample-wise enrichment score for each gene set on the RCT cohorts. Such enrichment scores, representing overall gene set activity, were then modeled to evaluate the treatment effect and the association with treatment response. […]

[3] = post-treatment, 12 weeks, one patient (ST-15), pre-treatment value 5

secukinumab
psoriasis plaque clearance (PASI 100, complete clinical remission) (PsO patient; one secukinumab-treated PsO patient): 100% | Body surface area (BSA) with psoriasis (%) (PsO patient; post-treatment, 12 weeks post-therapy, one patient (ST-15; AL and ANL samples), pre-treatment value 8): 0% | Deformity (PsO patient; post-treatment, 12 weeks, one patient (ST-15), pre-treatment value 0): 0 | Enthesitis (PsO patient; post-treatment, 12 weeks, one patient (ST-15), pre-treatment value 1): 0 | Dactylitis (PsO patient; post-treatment, 12 weeks, one patient (ST-15), pre-treatment value 4): 0 | PASI (PsO patient; [3]): 0 | Phys GA (global) (PsO patient; [3]): 1 | Swollen joint count (SJC) (PsO patient; post-treatment, 12 weeks, one patient (ST-15), pre-treatment value 11): 0 | Tender joint count (TJC) (PsO patient; post-treatment, 12 weeks, one patient (ST-15), pre-treatment value 12): 0 | expression of HIF1A, IL17RA, and IL17RC in resolved skin (post-treatment L) [1]: comparable to that of non-lesional skin | GSVA score of gene signature downregulated by HIF1α inhibitor, treatment group vs placebo [2]: significantly distinguished
